# According to patent US12030906B2, “Crystalline forms of (s)-2-ethylbutyl 2-(((s)-(((2r,3s,4r,5r)-5-(4-aminopyrrolo[2,1-f] [1,2,4]triazin-7-yl)-5-cyano-3,4-dihydroxytetrahydrofuran-2-yl)methoxy) (phenoxy) phosphoryl)amino)propanoate” (priority 2017, dated 2024):
# Where two headings read alike, the source gives them in different places.
# How the values were obtained:
# [1] = Competition experiment between Formula I Form I and Formula I Form II in isopropyl acetate; assay type: physicochemical; details: Experiment 26; Form I 11 mg + Mixture II 55.4 mg in IPAc 889 mg; 75 mg/g; suspension
# Experimental: A competition experiment between Formula I Form I and Formula I Form II was conducted by mixing Formula I Form I with isopropyl acetate, followed by adding Mixture II, a mixture of Formula I Form II and Formula I Form IV.
# [2] = assay type: physicochemical; details: for XRPD: room temperature, two weeks
# [3] = Competition experiment between Formula I Form II and Formula I Form IV in IPA/Water at 50° C.; assay type: physicochemical
# [4] = Experiment 023, wt % water 9.3, 1 day in suspension, Temp. 50
# [5] = Experiment 030, wt % water 4.9, 1, 3 days in suspension, Temp. 50
# [6] = Experiment 033, wt % water 39.5, 3 days in suspension, Temp. 50
# [7] = Experiment 034, wt % water 49.9, 1, 3 days in suspension, Temp. 50
smiles,measurement,setting,value
"CCC(CC)COC(=O)[C@H](C)N[P@](=O)(OC[C@H]1O[C@@](C#N)(c2ccc3c(N)ncnn23)[C@H](O)[C@@H]1O)Oc1ccccc1 [Formula I Form I, (S)-2-ethylbutyl 2-(((S)-(((2R,3S,4R,5R)-5-(4-aminopyrrolo[2,1-f][1,2,4]triazin-7-yl)-5-cyano-3,4-dihydroxytetrahydrofuran-2-yl)methoxy)(phenoxy)phosphoryl)amino)propanoate]",Comment (form conversion),[1],Form II in 1 day
"CCC(CC)COC(=O)[C@H](C)N[P@](=O)(OC[C@H]1O[C@@](C#N)(c2ccc3c(N)ncnn23)[C@H](O)[C@@H]1O)Oc1ccccc1 [Formula I, (S)-2-ethylbutyl 2-(((S)-(((2R,3S,4R,5R)-5-(4-aminopyrrolo[2,1-f][1,2,4]triazin-7-yl)-5-cyano-3,4-dihydroxytetrahydrofuran-2-yl)methoxy)(phenoxy)phosphoryl)amino)propanoate]",XRPD,"[2]; Experiment 12, 1-propanol",Partially converted to Form II
same,XRPD,"[2]; Experiment 14, THF",Partially converted to Form II
same,XRPD,"[2]; Experiment 16, 2-propanol",Partially converted to Form II
same,XRPD,"[2]; Experiment 18, ACN",Form II
same,XRPD,"[2]; Experiment 20, DCM",Partially converted to Form II
same,XRPD,"[2]; Experiment 22, Ethanol",Form II
same,XRPD,"[2]; Experiment 24, MTBE",Partially converted to Form II
same,XRPD,"[2]; Experiment 26, 2MeTHF",Partially converted to Form II
same,XRPD,"[2]; Experiment 28, EtOAc/water",Form II
same,XRPD,"[2]; Experiment 30, MEK",Form II
same,XRPD,"[2]; Experiment 32, Ethanol/water aw 0.4",Form II
"CCC(CC)COC(=O)[C@H](C)N[P@](=O)(OC[C@H]1O[C@@](C#N)(c2ccc3c(N)ncnn23)[C@H](O)[C@@H]1O)Oc1ccccc1 [Formula I Mixture II, (S)-2-ethylbutyl 2-(((S)-(((2R,3S,4R,5R)-5-(4-aminopyrrolo[2,1-f][1,2,4]triazin-7-yl)-5-cyano-3,4-dihydroxytetrahydrofuran-2-yl)methoxy)(phenoxy)phosphoryl)amino)propanoate]",Comment (form conversion),[1],Form II in 1 day
same,DSC,[3]; [4],Form II
same,XRPD,[3]; [4],Form II
same,DSC,[3]; [5],Form II
same,XRPD,[3]; [5],Form II
same,DSC,[3]; [6],Form II
same,XRPD,[3]; [6],Form II
same,DSC,[3]; [7],Form II
same,XRPD,[3]; [7],Form II
same,DSC,"[3]; Experiment 037, wt % water 0.93, 2 days in suspension, Temp. 50, 22",Form II
same,conversion of form,"[3]; IPA/Water (3/6 V/V) at 50° C. for several days, all experiments",conversion to Formula I Form II
"CCC(CC)COC(=O)[C@H](C)N[P@](=O)(OC[C@H]1O[C@@](C#N)(c2ccc3c(N)ncnn23)[C@H](O)[C@@H]1O)Oc1ccccc1 [Formula I Form II, (S)-2-ethylbutyl 2-(((S)-(((2R,3S,4R,5R)-5-(4-aminopyrrolo[2,1-f][1,2,4]triazin-7-yl)-5-cyano-3,4-dihydroxytetrahydrofuran-2-yl)methoxy)(phenoxy)phosphoryl)amino)propanoate]",more stable form,[2]; several competition experiments,more stable form
